Reference: patent US11980621B2, “Gonadotropin-releasing hormone antagonist dosing regimens for the treatment of endometriosis” (ObsEva S.A., priority 2017, dated 2024)

Experiments:
human GnRH receptor = target: T1, human GnRH receptor (Homo sapiens, UniProt P30968); test: affinity for human GnRH receptor; format: binding; settings: type of constant (Ki/IC50/Kd) not stated
T1 sequence (P30968 1-328): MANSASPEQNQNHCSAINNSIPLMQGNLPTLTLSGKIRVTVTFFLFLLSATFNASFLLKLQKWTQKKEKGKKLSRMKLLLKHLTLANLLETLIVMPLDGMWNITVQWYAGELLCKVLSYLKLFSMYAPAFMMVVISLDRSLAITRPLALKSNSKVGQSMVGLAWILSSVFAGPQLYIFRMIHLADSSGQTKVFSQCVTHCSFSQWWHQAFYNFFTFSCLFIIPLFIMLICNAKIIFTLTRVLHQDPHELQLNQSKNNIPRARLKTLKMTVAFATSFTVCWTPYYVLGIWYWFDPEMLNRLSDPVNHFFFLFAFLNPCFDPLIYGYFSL

[1] = tested on: various animal models of endometriosis; test: animal models of endometriosis; format: in vivo
Japanese women = test: daily dosing in Japanese women (LH, E2, endometriosis-associated pain, safety); format: in vivo, human; settings: doses between 50 and 200 mg daily
[2] = tested on: human female patients having endometriosis; test: 12-week oral treatment of endometriosis patients grouped by initial serum AMH; serum E2 concentration; format: in vivo
Experimental: In order to investigate the effects of GnRH antagonists, such as compound (I), (II), and pharmaceutically acceptable salts thereof, such as the choline salt thereof (compound (III)), on endometriosis patients presenting with distinct initial values of serum AMH, a series of experiments was conducted in which patients were divided into multiple treatment arms and orally administered either compound (III) or a placebo. Specifically, a series of n=327 human female patients having endometriosis were divided into five groups, and received either placebo, 50 mg/day of compound (III), 75 mg/day of compound (III), 100 mg/day of compound (III), or 200 mg/day of compound (III) by oral delivery. Treatment with the placebo or compound (III) at the doses specified above occurred continuously over a period of 12 weeks. At various time points throughout these experiments, patients were evaluated for their serum E2 concentration. As described herein, an objective of endometriosis therapy utilizing a GnRH antagonist is to suppress serum E2 values to within a range of from about 20 pg/ml to about 50 pg/ml or lower. Alleviation of endometriosis symptoms correlates with a reduction of serum E2, and achieving serum E2 levels that are either within this range or below are indicators of successful endometriosis treatment. To analyze the response of patients presenting with different initial AMH serum concentrations, patients were further divided into groups based on initial AMH serum level. These groups included patients having initial AMH serum concentrations of less than 15 pM, from 15 pM to 35 pM, or greater than 35 pM prior to commencing treatment with the GnRH antagonist.

Structure (SMILES)	affinity for human GnRH receptor (human GnRH receptor) [nM]	E2 secretion [1]	serum LH concentration [1]	size of endometriotic lesions [1]	endometriosis-associated pain (Japanese women)	luteinizing hormone (LH) (Japanese women)	safety and tolerability profile (Japanese women)	β17-estradiol (E2) (Japanese women)	serum E2 concentration ([2]; 50 mg/day, 12-week treatment period, initial AMH serum concentration less than 15 pM (FIG. 1))	suppression of serum E2 concentration ([2]; higher dosages, such as 100 mg/day and 200 mg/day, patients with higher initial serum AMH levels (FIG. 3))	serum E2 ([2]; various daily doses, oral, 12 weeks, initial serum AMH from 15 pM to 35 pM (FIG. 2))	serum E2 ([2]; various daily doses, oral, 12 weeks, initial serum AMH greater than 35 pM (FIG. 3))	serum β17-estradiol (E2) ([2]; various daily doses, oral, 12 weeks, initial serum AMH less than 15 pM (FIG. 1))
COc1cc(F)c(-n2c(=O)[nH]c3csc(C(=O)O)c3c2=O)cc1OCc1c(OC)ccc(F)c1F [Compound (II), 3-[2-fluoro-5-(2,3-difluoro-6-methoxybenzyloxy)4-methoxyphenyl]-2,4-dioxo-1,2,3,4-tetrahydrothieno[3,4d]pyrimidine-5-carboxylic acid]	27.4	significantly suppressing	significantly suppressing	significantly suppressing	significantly reduce	suppress	good safety and tolerability profile	suppress					
COc1cc(F)c(-n2c(=O)[nH]c3csc(C(=O)O)c3c2=O)cc1OCc1c(OC)ccc(F)c1F [compound (III), choline 3-[2-fluoro-5-(2,3-difluoro-6-methoxybenzyloxy)4-methoxyphenyl]-2,4-dioxo-1,2,3,4-tetrahydrothieno[3,4d]pyrimidine-5-carboxylate]									achieve a reduction in serum E2 concentration	generally required for suppression of serum E2 concentration	dose-dependent suppression	dose-dependent suppression	dose-dependent suppression
